Test [1] deals with Beta-lactamase (ampC; P00811). As to conditions: read-out: Affinity; AmpC fragment complexes, Figure 2; ref Barelier et al., 2014; cited from earlier work.
Test [2] deals with Heat shock protein HSP 90-alpha (HSP90AA1; P07900). Also on record: method as in Roughley and Hubbard, 2011. The settings on record: HSP90 fragment complexes, Figure 2; ref Roughley and Hubbard, 2011; read-out: Affinity; cited from earlier work.
For test [3], the target named is cAMP and cAMP-inhibited cGMP 3',5'-cyclic phosphodiesterase 10A (PDE10A; Q9Y233). Also on record: method as in Recht et al., 2014. As to conditions: PDE10A fragment complexes, Figure 2; ref Recht et al., 2014; read-out: Affinity; cited from earlier work.
Test [4] has as its target Glycogen synthase kinase-3 beta (GSK3B; P49841). The settings on record: GSK3b complex PDB 4J71, Figure S4; read-out: Affinity; cited from earlier work.
Test [5] addresses T1, murine langerin (Mus musculus, UniProt Q8VBX4).
T1 sequence (Q8VBX4 1-331): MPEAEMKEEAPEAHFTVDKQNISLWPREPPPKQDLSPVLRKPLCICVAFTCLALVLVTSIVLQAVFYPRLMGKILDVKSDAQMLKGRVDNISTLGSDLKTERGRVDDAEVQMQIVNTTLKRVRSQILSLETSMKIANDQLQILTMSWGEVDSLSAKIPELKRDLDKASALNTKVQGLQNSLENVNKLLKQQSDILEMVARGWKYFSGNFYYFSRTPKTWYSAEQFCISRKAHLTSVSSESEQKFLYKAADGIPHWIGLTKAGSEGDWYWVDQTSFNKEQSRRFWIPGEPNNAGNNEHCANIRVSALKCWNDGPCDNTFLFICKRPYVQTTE
The test can be described thus: STD NMR measurements (fragment screening and epitope mapping), STD amplification factor. The class given is binding. Here is the method:
STD NMR experiments were performed as described elsewhere (Aretz et al., [2018]). Briefly, 10 μM murine langerin was screened against a library of 660 fragments at a ligand concentration [L] = 0.2 mM using a saturation time of tsat = 4 s. Hits were counter-screened by SPR (see the section Estimation of Affinity Using Surface Plasmon Resonance), enabling affinity estimation and hit validation. For SPR-validated hits, the STD amplification factor was determined as reported earlier (Mayer and Meyer, [2001]) and plotted against affinity (Figure 1A). For epitope mapping of thiazolopyrimidine derivatives (Figure 2E), protein concentration was [P] = 20 μM, ligand concentration was [L] = 0.5–1 mM, and tsat = 1 s. Affinity of all derivatives was estimated by SPR (see the section Estimation of Affinity Using Surface Plasmon Resonance), and the STD amplification factor was determined as reported earlier for the proton in the 7-position of the thiazolopyrimidine scaffold (Mayer and Meyer, [2001]). Spectra were analyzed in MestReNova 10.0.0.

The target in test [6] is T1, murine langerin. The arrangement: method as in Aretz et al. (2018). The settings on record: estimated by SPR; murine langerin on CM7 chip; 25 mM HEPES pH 7.6, 150 mM NaCl, 5 mM CaCl2, 0.005% Tween-20; ref Aretz et al. (2018); read-out: Affinity; cited from earlier work.
[7] abbreviates: Figure 1a fragment screening, [P] = 10 μM, [L] = 0.2 mM, tsat = 4 s.

We go through 42 compounds from PMC6473174, “Ranking Hits From Saturation Transfer Difference Nuclear Magnetic Resonance–Based Fragment Screening” (Frontiers in Chemistry, 2019).

For the compound `O=C(O)c1sccc1S(=O)(=O)NC1CC1` [4KZA], the Kd in test [1] was 0.2 mM. Consider `C[C@@H](C(=O)O)N(c1ccccc1)S(C)(=O)=O` [4KZB], for which the Kd in test [1] was 1.3 mM.

Take `NC(=O)c1ccccc1N` [CHEMBL43175]: in test [2], the Kd was more than 0.4 mM. For `CC1CCCC(C(=O)O)N1C(=O)CCS` (stereo not shown) [CHEMBL331575], in test [1], the Kd is 0.8 mM.

In the case of `Cc1nc2ccccc2c(=O)[nH]1` [CHEMBL395092], in test [3], the Kd was 0.99 mM. For `CCC(=O)c1ccc(O)cc1O` [CHEMBL539379], the Kd in test [2] was 0.57 mM.

As for `COC(=O)Cc1cc(O)cc(O)c1` [CHEMBL540934], the Kd in test [2] is 0.49 mM.

`CCN1C(=O)CC(=O)N(CC)C1=S` [CHEMBL2136061]: in test [1], the Kd was 1.6 mM. Regarding `C[C@@H]1Nc2cccnc2NC1=O` [CHEMBL3941552], the Kd in test [4] is more than 3 mM.

In turn, `Cc1nnc(-c2ccccc2)nc1O` [S3] registered an STD amplification factor in test [5] (setting [7]) of 19. In addition, the Kd in test [6] was 4.7 ± 0.6 mM. In the case of `O=C(O)Cc1cccc2occc12` [S6], the STD amplification factor in test [5] (setting [7]) was 55. The Kd in test [6] is 4.3 ± 0.5 mM. In test [5] (setting [7]), `Cc1ccsc1/C=C/C(=O)O` [S8] gave an STD amplification factor of 86. For the same compound, the Kd in test [6] was 3.4 ± 0.4 mM. In test [5] (setting [7]), `Nc1cccc2c1CN(C1CCCCC1)C2=O` [S11] returned an STD amplification factor of 23. Moreover, the Kd in test [6] is 0.7 ± 0.2 mM. On to `COc1ccc2c(c1)C(CC(=O)O)CC2=O` (stereo not shown) [S12], for which the STD amplification factor in test [5] (setting [7]) is 10. Also, in test [6], the Kd was 1.1 ± 0.2 mM. Regarding `N#Cc1c(N)sc2c1CCCC2` [S13], the STD amplification factor in test [5] (setting [7]) is 33. The Kd in test [6] is 1.5 ± 0.3 mM. Compound `O=C(O)/C=C/c1ccc2c(c1)OCCO2` [S14] displayed an STD amplification factor in test [5] (setting [7]) of 36. Also, in test [6], the Kd was 2.2 ± 0.2 mM. On to `CN(C)S(=O)(=O)c1cccc(C(=O)O)c1` [S15], for which, in test [5] (setting [7]), the STD amplification factor was 41. The Kd in test [6] was 11.3 ± 3 mM. In turn, `NC(=O)c1ccc(Cl)s1` [S18] yielded an STD amplification factor in test [5] (setting [7]) of 21. Moreover, the Kd in test [6] is 3.5 ± 0.2 mM. As to `CCC(C)(C(=O)O)c1cccs1` (stereo not shown) [S21], the STD amplification factor in test [5] (setting [7]) amounted to 13. The Kd in test [6] is 3.3 ± 0.2 mM.

Take `CN(C)C(=O)Oc1cccc(C(=O)O)c1` [S22]: in test [5] (setting [7]), the STD amplification factor turned out to be 24. Further, the Kd in test [6] is approximately 4 mM. `O=C1NC(=O)[C@@H]2CN(Cc3ccccc3)C[C@H]12` [S23] had an STD amplification factor in test [5] (setting [7]) of 4. Further, the Kd in test [6] was 4.9 ± 0.2 mM. On to `c1ccc(-c2nnc3n2CCCC3)cc1` [S30], for which the STD amplification factor in test [5] (setting [7]) is reported as 8. Besides, the Kd in test [6] was 10 ± 3 mM. In turn, `COc1ccccc1/C=C1/C(=O)N=C(N)N1C` [S31] came in with an STD amplification factor in test [5] (setting [7]) of 5. Further, the Kd in test [6] is 4 ± 2 mM.

`CC(=O)c1ccn(S(=O)(=O)c2ccccc2)c1` [S36] returned an STD amplification factor in test [5] (setting [7]) of 44. The Kd in test [6] is 19 ± 1 mM. With `CCN1C(=O)c2ccccc2NC12CCCC2` [S37], the STD amplification factor in test [5] (setting [7]) turned out to be 2. Besides, the Kd in test [6] was 13 ± 2 mM. As for `Cc1cc(C)c(S(=O)(=O)C(C)C)c(Cl)n1` [S38], in test [5] (setting [7]), the STD amplification factor is 4. The Kd in test [6] was 4.7 ± 0.7 mM. `COC(=O)c1cc(C)c(N)c(Br)c1` [S39] had an STD amplification factor in test [5] (setting [7]) of 49. For the same compound, the Kd in test [6] is 28 ± 9 mM.

`COc1cc(C(=O)O)c(Br)cc1C` [S42] came in with an STD amplification factor in test [5] (setting [7]) of 79. Moreover, the Kd in test [6] was 5.4 ± 0.9 mM.

In turn, `CNC(=O)Nc1nnc(C(C)(C)C)s1` [S44] had an STD amplification factor in test [5] (setting [7]) of 7. For the same compound, the Kd in test [6] was 2.9 ± 0.4 mM.

Compound `CN(C)C(=O)c1csc(-c2ccccc2)n1` [S52] had an STD amplification factor in test [5] (setting [7]) of 3. Moreover, the Kd in test [6] is 2.7 ± 0.4 mM. Turning to `Cn1cc(CC(=O)O)c2ccccc21` [S53], in test [5] (setting [7]), the STD amplification factor is listed as 37. For the same compound, the Kd in test [6] was 3 ± 0.1 mM. `O=C(O)c1cccn(Cc2ccccc2)c1=O` [S55]: the STD amplification factor in test [5] (setting [7]) is on record as 10. For the same compound, the Kd in test [6] is 24.7 ± 10.3 mM. Turning to `COc1ccc(NS(C)(=O)=O)cc1` [S56], the STD amplification factor in test [5] (setting [7]) came out at 3. For the same compound, the Kd in test [6] was 16.8 ± 3.6 mM. In test [5] (setting [7]), `CC(=O)Nc1ccc2nc(C)oc2c1` [S57] returned an STD amplification factor of 2. Further, the Kd in test [6] is 5.7 ± 0.4 mM.

The compound `OCc1cc(-c2ccccc2)on1` [S58] yielded an STD amplification factor in test [5] (setting [7]) of 19. The Kd in test [6] is 2.3 ± 0.1 mM.

Regarding `CCNCc1cc(O)ccc1Br` [S59], the STD amplification factor in test [5] (setting [7]) was 13. In test [6], the Kd is 2 ± 0.3 mM. The compound `O=C(Nc1ccccc1O)c1cccnc1Cl` [S60] gave an STD amplification factor in test [5] (setting [7]) of 24. Moreover, the Kd in test [6] was 2.4 ± 0.1 mM. `O=C1NC(=O)C(Cc2ccncc2)S1` (stereo not shown) [S61] returned an STD amplification factor in test [5] (setting [7]) of 16. Also, the Kd in test [6] is 3.8 ± 0.3 mM. With `COc1cc(C(C)=O)ccc1N` [S63], in test [5] (setting [7]), the STD amplification factor is 4. The Kd in test [6] is 9 ± 1 mM. `COC(=O)c1cc2c(s1)CCC2` [S65] yielded an STD amplification factor in test [5] (setting [7]) of 43. Also, the Kd in test [6] was 4.5 ± 0.7 mM.

For the compound `Nc1ccc2sc(C(=O)O)cc2c1` [S66], the STD amplification factor in test [5] (setting [7]) is recorded as 44. In addition, the Kd in test [6] is 11.6 ± 0.1 mM. For the compound `O=c1c(-c2ccn[nH]2)cnc2sccn12` [compound 1], the STD amplification factor in test [5] (setting [7]) turned out to be 16; in test [5] (Figure 2e thiazolopyrimidine SAR, proton in 7-position, [P] = 20 μM, [L] = 0.5–1 mM, tsat = 1 s), 1.8. Also, the Kd in test [6] was 0.8 ± 0.1 mM.
